Measurements: patent US20080125453A1 (TIBER LABORATORIES, LLC, priority 2001, published 2008)
Counter-ions that a name gives are not always drawn.

Assays:
[1] = background statement; cited from earlier work
[2] = assay type: physicochemical
Method: The salt of the active ingredient, corresponding to an amount of free base present in a final batch size of 1 kg was dissolved in 100 ml of purified water. 120 ml of purified water was placed in a 600 ml beaker and stirred. While stirring, 3 g of MAS was added in small portions to obtain a dispersion. The amount of MAS used is a part of the total amount of MAS to be used in the formulation. Once the MAS was dispersed, tannic acid was added to the mixture and stirred to form a uniform dispersion. Three different batches of the MAS/tannic acid dispersion in purified water were prepared for each active. In the three batches, the amount of tannic acid used in the batch may vary from an amount equal to that of the free base, to two time to three times that of the free base present in the initial salt solution.
The salt solution was then added in small portions, under light stirring, to the MAS/Tannic acid dispersion. After all of the salt solution was added, the volume was made up to 250 ml with purified water and stirring was continued for a period of 10 minutes.
The MAS was used in this step to serve as an adherent or a solid support for the tannic acid molecules to facilitate the conversion process.

Compound | solubility in water [1] | other results
CNC[C@H](O)c1cccc(O)c1 [Phenylephrine hydrochloride] | freely soluble | –
COc1ccc(CN(CCN(C)C)c2ccccn2)cc1 [Pyrilamine hydrochloride, N-[(4-methoxyphenyl)methyl]-N′,N′-dimethyl- -N-2-pyridinyl-1,2-ethanediamine] | freely soluble | –
COc1ccc(CN(CCN(C)C)c2ccccn2)cc1 [maleate salt, N-[(4-methoxyphenyl)methyl]-N′,N′-dimethyl- -N-2-pyridinyl-1,2-ethanediamine] | slightly soluble | –
CNC[C@H](O)c1cccc(O)c1 [phenylephrine] | – | solubility of the tannate salt in purified water [2]: partial solubility
COc1ccc(CN(CCN(C)C)c2ccccn2)cc1 [pyrilamine] | – | precipitate formation on addition to MAS/tannic acid dispersion ([2]; purified water, at all three concentrations of tannic acid (1x, 2x, 3x the free base)): copious amounts of precipitate
